Results reported in US20160115200A1, “New Use for JNK Inhibitor Molecules for Treatment of Various Diseases” (XIGEN INFLAMMATION LTD., priority 2013, published 2016).
Square brackets hold non-standard residues; d marks the D form. Peptide text beside a SMILES is read from it.

Columns and labels:
[1] = system: THP1-PMA-differentiated macrophages; experiment: LPS-induced cytokine and chemokine release in PMA differentiated THP1 macrophages (ELISA); type: cell-based, human
From the text: The technique used is a Sandwich ELISA, which allows measuring the amount of antigen between two layers of antibodies (i.e. capture and detection antibody). The antigen to be measured must contain at least two antigenic sites capable of binding to antibody, since at least two antibodies act in the sandwich. Either monoclonal or polyclonal antibodies can be used as the capture and detection antibodies in Sandwich ELISA systems. Monoclonal antibodies recognize a single epitope that allows fine detection and quantification of small differences in antigen. A polyclonal is often used as the capture antibody to pull down as much of the antigen as possible.
In the following the procedure will be set forth describing how cytokine production from human PMA differentiated THP1 cells challenged by LPS for 6 h was induced in order to test the ability of JNK inhibitors of the present invention, in particular of a JNK inhibitor with SEQ ID NO: 172, to reduce stimulation-induced cytokine release. THP1 cells were stimulated ex-vivo by different ligands for the readout of cytokine release. At non toxic doses, JNK inhibitor efficacy is indicated by the decrease of the cytokine levels as compared to non-treated samples and is monitored by ELISA. The toxicity of the compound are evaluated by the reduction of a tretazolium salt (MTS) to formazan, giving a purple colour.
The cells were counted. The desired number of cells was taken and resuspended in the amount of media necessary to get a dilution of 1'000'000 cells/ml. 100 nM of PMA was added to induce the differentiation of the THP1 from suspension monocytes to adherent macrophages. The cells were plated into the wells in […] medium at plating densities of 100'000 cells/well. After inoculation, the plates were incubated at 37° C., 5% CO2 and 100% relative humidity 3 days to let them differentiate, prior to the addition of experimental drugs.
The plates were treated with 50 µl of medium or a solution of 4× the final desired drug concentration (0, 100 nM, 1, 3, 10 or 30 µM final for JNK compound or at 0, 10, 100 nM, 1, 3 or […] final for the SP600125 positive control). Following drug addition, the plates were incubated for an additional 1 h at 37° C., 5% CO2 and 100% relative humidity. […]
After 6 hours, 100 µl of the supernatant were transferred to new 96 well plates. Those plates were sealed and stored at −20° till the analysis by ELISA (e.g. see example 4) of the secretion of the cytokines.
Analyses of the data are performed as indicated in the ELISA (see example 4). Briefly, for ELISA: Average the triplicate readings for each standard control and each sample. Subtract the average zero standard optical density (O.D). Create a standard curve plotting the log of the cytokine concentration versus the log of the O.D and the best fit line can be determined by regression analysis. If samples have been diluted, the concentration read from the standard curve must be multiplied by the dilution factor. A standard curve should be generated for each set of samples assayed. The outliers data were avoid using Grugg's test. Then the data which weren't in the interval of two times the SD, were discard. […] The independent experiments are pooled (N>3).

[2] = system: IMQ-induced psoriasis in BALB/c mice; experiment: Imiquimod-induced psoriasis in mice, ear histopathology; type: in vivo, mouse
Method: Female BALB/cAnNCrl mice (Charles River, age 8 to 10 weeks at study start) have been assigned to the following groups (treatment schedule):
In this experiment, two positive controls have been utilized. Firstly, Prednisolone at 10 mg/kg (vehicle: 1% Hydroxyethylcellulose, 0.25% Polysorbate 80, and 0.05% Antifoam in purified water) has been dosed daily and orally (group “Prednisolone”). Secondly, Dexamethasone has been administered at 0.5 mg/kg (vehicle: sterile 0.9% NaCl) on days 1, 4 and 7 via intravenous route.
On day 8, animals have been sacrificed and the tissue (ear) has been fixed in 10% neutral buffered formalin. For histopathology hematoxylin-and-eosin-stained sections (cross cut) have been prepared and microscopic evaluation on the collected tissues from all animals has been performed. Methods and end-points for histopathology were similarly described in the van der Fits (2009) paper in that inflammation, epidermal hyperplasia, epidermal hyperkeratosis (rather than parakeratosis) were observed and recorded for severity grade, whereby the respective methodology from Van der Fits et al. (The Journal of Immunology 2009, 182, P. 5836-5845) is hereby incorporated by reference. Histopathology grading scores were excluded for either skin or ear in animals with secondary inflammatory processes (full thickness epidermal ulcers). Scores were averaged by group and standard deviation and statistical significance were calculated. […] Formalin-fixed, paraffin embedded skin from the dorsal surface of the mouse (BALB/c) was stained with hematoxylin and eosin (H&E) stain and assessed microscopically. An important difference from the above reference and to describe in more detail the observations of the present study: Hyperkeratosis can be defined specifically as orthokeratotic (no retained nuclei) or parakeratotic (retained nuclei). Either can occur normally in various anatomical locations and depending on species; however, both conditions are well defined in particular disease states. The van der Fits paper describes their Imiquimod (IMQ)-induced psoriasis model as causing parakeratotic hyperkeratosis similar to what is seen in the human condition, and that was a defined end-point for this study. However, the Danilenko et al. (Veterinary Pathology 2008 45:563) has shown that many rodent psoriasis models have orthokeratotic hyperkeratosis. […] The more general term ‘hyperkeratosis’ was used for grading end-points and describe in the text what type was seen (primarily orthokeratotic).
1=MI=minimal 2=SL=slight 3=M0=moderate 4=MA=marked 5=SE=severe

[3] = dissolved in 0.9% NaCl, up to 0.4 mg/ml
From the text: To receive three different doses (cf. above, groups table) it has been serially diluted (1:10 fold).

## CC(C)C[C@H](NC(=O)[C@H](CC(N)=O)NC(=O)[C@H](CC(C)C)NC(=O)[C@@H](NC(=O)[C@@H](C)NC(=O)[C@@H]1CCCN1C(=O)[C@H](CCCNC(=N)N)NC(=O)[C@@H](CCCCN)NC(=O)[C@@H]1CCCN1C(=O)[C@H](CCCNC(=N)N)NC(=O)[C@@H](CCCNC(=N)N)NC(=O)[C@H](CCCNC(=N)N)NC(=O)[C@H](CCCNC(=N)N)NC(=O)[C@H](CCC(N)=O)NC(=O)[C@@H](CCCNC(=N)N)NC(=O)[C@H](CCCNC(=N)N)NC(=O)[C@H](CCCCN)NC(=O)[C@H](CCCCN)NC(=O)[C@H](N)CCCNC(=N)N)[C@@H](C)O)C(=O)N[C@H](Cc1ccccc1)C(N)=O [SEQ ID NO: 172, rKKRrQRRrRPkRPaTLNLf] (H-[dR]KKR[dR]QRR[dR]RP[dK]RP[dA]TLNL[dF]-NH2)
[1]; LPS 6 h (10 ng/ml)
  LPS-induced IL6 release, potency compared with SEQ ID NO: 197, SEQ ID NO: 45 and SP 600125: higher potency
  LPS-induced TNFα release, potency compared with SEQ ID NO: 197, SEQ ID NO: 45 and SP 600125: higher potency
[1]; PMA differentiated macrophages
  LPS-induced TNFα release, potency compared with SEQ ID NO: 197 and SEQ ID NO: 196: higher potency
[1]; PMA differentiated macrophages, LPS 6 h
  LPS-induced IL-6 release, potency compared with SEQ ID NO: 197 and SEQ ID NO: 196: higher potency
[1]; THP1pma, 6 h, 3 or 10 ng/ml LPS
  LPS-induced cytokine and chemokine release (TNF, IL 6, MCP1): blocks LPS-induced cytokine and chemokine release
[2]; high-dose 2 mg/kg IV days 1, 4, 7
  inflammation of the ear (average histopathology grade) vs vehicle-IMQ group: decreased inflammation of the ear
[2]; low-dose 0.02 mg/kg IV days 1, 4, 7
  epidermal hyperkeratosis of the ear, average grades vs vehicle-IMQ group: minimally decreased average grades
[2]; mid-dose 0.2 mg/kg IV days 1, 4, 7, statistically significant, 0.2 mg/kg
  inflammation of the ear (average histopathology grade) vs vehicle-IMQ group: decreased inflammation of the ear
[2]; mid-dose 0.2 mg/kg IV days 1, 4, 7, statistically significant, listed as XG-104, 0.2 mg/kg
  inflammation of the ear (average histopathology grade) vs vehicle-IMQ group: significant differences from the vehicle control group
[2]; mid-dose 0.2 mg/kg IV, not statistically significant
  epidermal hyperplasia of the ear vs vehicle-IMQ group: Minimal decreases in epidermal hyperplasia of the ear
[3]
  solubility: readily soluble
